Results reported in patent US20230338391A1, “TREATMENT FOR DEPRESSION” (TAKEDA PHARMACEUTICAL COMPANY LIMITED, priority 2020, published 2023).
Read-outs that look alike come from different tables or passages of the source.

Assay: Phase 1 SRD/multiple-rising dose (MRD, Part 2) plasma PK in healthy subjects
Assay type: in vivo, human
Details: for Vd/F: read-out: Vz/F
Procedure: The study was designed to assess the safety, tolerability, PK, and PD of COMPOUND A. A total of 88 subjects were enrolled in 6 SRD and 5 SRD/MRD cohorts (n=8 per cohort). The study was composed of 2 parts.
In Part 2 of the study (SRD/MRD cohorts), a single oral tablet dose of COMPOUND A (0.3, 1, 3, 6, or 9 mg) or matching placebo was administered on Day 1 followed by safety, tolerability, PK, and PD assessments. Study drug (at the same dose level) was then administered once daily (QD) for 13 days, on […]. Each cohort of 8 subjects (6 active: 2 placebo) were administered study drug sequentially to ensure adequate safety and tolerability before administering the next dose level. Neither sentinel nor staggered dosing was used for the SRD/MRD cohorts. Subjects were confined in the study unit for 21 days, from Check-in on Day −1 until 72 hours after the last dose of study drug.
For all cohorts in Parts 1 and 2, serial PK blood samples were collected pre- and post-dose on Day 1 to measure plasma concentrations of COMPOUND A and its metabolites. For all SRD/MRD cohorts in Part 2, urine samples were collected pre- and post-dose on Day 1 and post-dose on Day 18 to measure concentrations of COMPOUND A and its metabolites.
For Part 1 of the study, all 36 subjects who received COMPOUND A were included in the PK set. For Part 2 of the study, all 30 subjects who received COMPOUND A were included in the PK set.
Referring now to FIG. 3, mean plasma concentration-time profiles (linear and semilog scales) of COMPOUND A were determined on Day 18 following oral administration of COMPOUND A QD for 13 days.

[1] = 0.3 mg QD cohort, Study Day 1, mean
[2] = 1 mg QD cohort, Study Day 1, mean
[3] = 3 mg QD cohort, Study Day 1, mean
[4] = 6 mg QD cohort, Study Day 1, mean
[5] = 9 mg QD cohort, Study Day 1, mean
[6] = both sexes, human, plasma, oral, 0.3 mg QD cohort, Study Day 1, mean
[7] = both sexes, human, plasma, oral, 1 mg QD cohort, Study Day 1, mean
[8] = both sexes, human, plasma, oral, 3 mg QD cohort, Study Day 1, mean
[9] = both sexes, human, plasma, oral, 6 mg QD cohort, Study Day 1, mean
[10] = both sexes, human, plasma, oral, 9 mg QD cohort, Study Day 1, mean

Q: With CC1=CN2CCS(=O)(=O)N=C2C(c2ccc(OC3CCCCC3)cc2)=N1 [COMPOUND A, 9-[4-(Cyclohexyloxy)phenyl]-7-methyl-3,4-dihydropyrazino[2,1-c][1,2,4]thiadiazine 2,2-dioxide] as the compound, how does the CL/F [1] read?
A: 2.38 L/h

Q: What about the t1/2z [1] of the same compound?
A: 37.1 h

Q: And the “Cav, ss” value (0.3 mg QD, Study Day 18, mean)?
A: 6.27 ng/mL

Q: What about the CL/F [2] of the same compound?
A: 2.35 L/h

Q: What about the t1/2z [2] of the same compound?
A: 42.4 h

Q: And the “Cav, ss” value (1 mg QD, Study Day 18, mean)?
A: 20.9 ng/mL

Q: What about the CL/F [3] of the same compound?
A: 1.81 L/h

Q: And the t1/2z [3]?
A: 52.6 h

Q: And the “Cav, ss” value (3 mg QD, Study Day 18, mean)?
A: 81.1 ng/mL

Q: What about the CL/F [4] of the same compound?
A: 3.25 L/h

Q: What about the t1/2z [4] of the same compound?
A: 36.0 h

Q: What about the “Cav, ss” value (6 mg QD, Study Day 18, mean, n = 5) of the same compound?
A: 122 ng/mL

Q: What about the CL/F [5] of the same compound?
A: 2.17 L/h

Q: What about the t1/2z [5] of the same compound?
A: 49.9 h

Q: And the “Cav, ss” value (9 mg QD, Study Day 18, mean)?
A: 192 ng/mL

Q: And the AUC (both sexes, human, plasma, oral, 0.3 mg, 0.3 mg QD cohort, Study Day 1, mean, read-out: AUC24)?
A: 48 ng·h/mL

Q: And the Cmax (both sexes, human, plasma, oral, 0.3 mg, 0.3 mg QD cohort, Study Day 1, mean, read-out: Cmax)?
A: 2.93 ng/mL

Q: What about the Tmax (both sexes, human, plasma, oral, 0.3 mg, 0.3 mg QD cohort, Study Day 1, median, read-out: tmax) of the same compound?
A: 1.25 h

Q: And the AUC (both sexes, human, plasma, oral, 0.3 mg, 0.3 mg QD, Study Day 6, mean, read-out: AUC24)?
A: 51.8 ng·h/mL

Q: And the Cmax (both sexes, human, plasma, oral, 0.3 mg, 0.3 mg QD, Study Day 6, mean, read-out: Cmax)?
A: 3.07 ng/mL

Q: What about the Tmax (both sexes, human, plasma, oral, 0.3 mg, 0.3 mg QD, Study Day 6, median, read-out: tmax) of the same compound?
A: 1.5 h

Q: And the AUC (both sexes, human, plasma, oral, 0.3 mg, 0.3 mg QD, Study Day 18, mean, read-out: AUCτ)?
A: 151 ng·h/mL

Q: What about the Cmax (both sexes, human, plasma, oral, 0.3 mg, 0.3 mg QD, Study Day 18, mean, read-out: Cmax, ss) of the same compound?
A: 7.87 ng/mL

Q: What about the Tmax (both sexes, human, plasma, oral, 0.3 mg, 0.3 mg QD, Study Day 18, median, read-out: tmax) of the same compound?
A: 2.5 h

Q: And the AUC (both sexes, human, plasma, oral, 1 mg, 1 mg QD cohort, Study Day 1, mean, read-out: AUC24)?
A: 138 ng·h/mL

Q: What about the Cmax (both sexes, human, plasma, oral, 1 mg, 1 mg QD cohort, Study Day 1, mean, read-out: Cmax) of the same compound?
A: 7.82 ng/mL

Q: What about the Tmax (both sexes, human, plasma, oral, 1 mg, 1 mg QD cohort, Study Day 1, median, read-out: tmax) of the same compound?
A: 4 h

Q: And the AUC (both sexes, human, plasma, oral, 1 mg, 1 mg QD, Study Day 6, mean, read-out: AUC24)?
A: 162 ng·h/mL

Q: What about the Cmax (both sexes, human, plasma, oral, 1 mg, 1 mg QD, Study Day 6, mean, read-out: Cmax) of the same compound?
A: 10 ng/mL

Q: What about the Tmax (both sexes, human, plasma, oral, 1 mg, 1 mg QD, Study Day 6, median, read-out: tmax) of the same compound?
A: 1 h

Q: What about the AUC (both sexes, human, plasma, oral, 1 mg, 1 mg QD, Study Day 18, mean, read-out: AUCτ) of the same compound?
A: 503 ng·h/mL

Q: What about the Cmax (both sexes, human, plasma, oral, 1 mg, 1 mg QD, Study Day 18, mean, read-out: Cmax, ss) of the same compound?
A: 24.9 ng/mL

Q: What about the Tmax (both sexes, human, plasma, oral, 1 mg, 1 mg QD, Study Day 18, median, read-out: tmax) of the same compound?
A: 4.5 h

Q: And the AUC (both sexes, human, plasma, oral, 3 mg, 3 mg QD cohort, Study Day 1, mean, read-out: AUC24)?
A: 480 ng·h/mL

Q: What about the Cmax (both sexes, human, plasma, oral, 3 mg, 3 mg QD cohort, Study Day 1, mean, read-out: Cmax) of the same compound?
A: 28.7 ng/mL

Q: What about the Tmax (both sexes, human, plasma, oral, 3 mg, 3 mg QD cohort, Study Day 1, median, read-out: tmax) of the same compound?
A: 1.5 h

Q: And the AUC (both sexes, human, plasma, oral, 3 mg, 3 mg QD, Study Day 6, mean, read-out: AUC24)?
A: 594 ng·h/mL

Q: What about the Cmax (both sexes, human, plasma, oral, 3 mg, 3 mg QD, Study Day 6, mean, read-out: Cmax) of the same compound?
A: 34.7 ng/mL

Q: And the Tmax (both sexes, human, plasma, oral, 3 mg, 3 mg QD, Study Day 6, median, read-out: tmax)?
A: 1.54 h

Q: And the AUC (both sexes, human, plasma, oral, 3 mg, 3 mg QD, Study Day 18, mean, read-out: AUCτ)?
A: 1950 ng·h/mL

Q: And the Cmax (both sexes, human, plasma, oral, 3 mg, 3 mg QD, Study Day 18, mean, read-out: Cmax, ss)?
A: 100 ng/mL

Q: And the Tmax (both sexes, human, plasma, oral, 3 mg, 3 mg QD, Study Day 18, median, read-out: tmax)?
A: 4 h

Q: And the AUC (both sexes, human, plasma, oral, 6 mg, 6 mg QD cohort, Study Day 1, mean, read-out: AUC24)?
A: 767 ng·h/mL

Q: And the Cmax (both sexes, human, plasma, oral, 6 mg, 6 mg QD cohort, Study Day 1, mean, read-out: Cmax)?
A: 42 ng/mL

Q: What about the Tmax (both sexes, human, plasma, oral, 6 mg, 6 mg QD cohort, Study Day 1, median, read-out: tmax) of the same compound?
A: 5 h

Q: And the AUC (both sexes, human, plasma, oral, 6 mg, 6 mg QD, Study Day 6, mean, n = 5, read-out: AUC24)?
A: 784 ng·h/mL

Q: What about the Cmax (both sexes, human, plasma, oral, 6 mg, 6 mg QD, Study Day 6, mean, read-out: Cmax) of the same compound?
A: 50.2 ng/mL

Q: And the Tmax (both sexes, human, plasma, oral, 6 mg, 6 mg QD, Study Day 6, median, read-out: tmax)?
A: 5 h

Q: What about the AUC (both sexes, human, plasma, oral, 6 mg, 6 mg QD, Study Day 18, mean, n = 5, read-out: AUCτ) of the same compound?
A: 2930 ng·h/mL

Q: And the Cmax (both sexes, human, plasma, oral, 6 mg, 6 mg QD, Study Day 18, mean, n = 5, read-out: Cmax, ss)?
A: 148 ng/mL

Q: What about the Tmax (both sexes, human, plasma, oral, 6 mg, 6 mg QD, Study Day 18, median, n = 5, read-out: tmax) of the same compound?
A: 3.05 h

Q: And the AUC (both sexes, human, plasma, oral, 9 mg, 9 mg QD cohort, Study Day 1, mean, read-out: AUC24)?
A: 1410 ng·h/mL

Q: And the Cmax (both sexes, human, plasma, oral, 9 mg, 9 mg QD cohort, Study Day 1, mean, read-out: Cmax)?
A: 78.4 ng/mL

Q: And the Tmax (both sexes, human, plasma, oral, 9 mg, 9 mg QD cohort, Study Day 1, median, read-out: tmax)?
A: 4.51 h

Q: And the AUC (both sexes, human, plasma, oral, 9 mg, 9 mg QD, Study Day 6, mean, read-out: AUC24)?
A: 1570 ng·h/mL

Q: And the Cmax (both sexes, human, plasma, oral, 9 mg, 9 mg QD, Study Day 6, mean, read-out: Cmax)?
A: 82 ng/mL

Q: And the Tmax (both sexes, human, plasma, oral, 9 mg, 9 mg QD, Study Day 6, median, read-out: tmax)?
A: 4 h

Q: And the AUC (both sexes, human, plasma, oral, 9 mg, 9 mg QD, Study Day 18, mean, read-out: AUCτ)?
A: 4600 ng·h/mL

Q: What about the Cmax (both sexes, human, plasma, oral, 9 mg, 9 mg QD, Study Day 18, mean, read-out: Cmax, ss) of the same compound?
A: 243 ng/mL

Q: And the Tmax (both sexes, human, plasma, oral, 9 mg, 9 mg QD, Study Day 18, median, read-out: tmax)?
A: 3 h

Q: And the AUC (both sexes, human, plasma, oral, Day 18, range over the 0.3 to 9 mg QD dose range, read-out: mean AUCτ)?
A: 151 to 4600 ng·h/mL

Q: What about the concentration at 18 day (both sexes, human, plasma, oral, Day 18, range over the 0.3 to 9 mg QD dose range, read-out: mean Cav,ss) of the same compound?
A: 6.27 to 192 ng/mL

Q: And the Cmax (both sexes, human, plasma, oral, Day 18, range over the 0.3 to 9 mg QD dose range, read-out: mean plasma Cmax,ss)?
A: 7.86 to 243 ng/mL

Q: And the AUC(0-inf) [6]?
A: 133 ng·h/mL

Q: And the AUC(0-t) [6]?
A: 118 ng·h/mL

Q: What about the Vd/F [6] of the same compound?
A: 121 L

Q: What about the AUC(0-inf) [7] of the same compound?
A: 470 ng·h/mL

Q: And the AUC(0-t) [7]?
A: 394 ng·h/mL

Q: What about the Vd/F [7] of the same compound?
A: 133 L

Q: And the AUC(0-inf) [8]?
A: 1870 ng·h/mL

Q: What about the AUC(0-t) [8] of the same compound?
A: 1470 ng·h/mL

Q: What about the Vd/F [8] of the same compound?
A: 126 L

Q: And the AUC(0-inf) [9]?
A: 2330 ng·h/mL

Q: What about the AUC(0-t) [9] of the same compound?
A: 1960 ng·h/mL

Q: What about the Vd/F [9] of the same compound?
A: 145 L

Q: And the AUC(0-inf) [10]?
A: 5760 ng·h/mL

Q: And the AUC(0-t) [10]?
A: 4430 ng·h/mL

Q: What about the Vd/F [10] of the same compound?
A: 119 L

Q: And the Tmax (both sexes, human, plasma, po, 9 mg, oral QD 0.3, 1, 3, 6, 9 mg, range over the dose range, read-out: median tmax)?
A: 2.5 to 4 h

Q: What about the attainment of steady-state (oral QD 0.3-9 mg from Day 6) of the same compound?
A: appeared to reach steady-state on Day 18
